Details of data set [1]: method as in PMID 17949068. The conditions noted are these: cited from earlier work.
A further data set has as its system T. b. rhodesiense. The arrangement: method as in PMID 17949068. As to conditions: in vitro, blood stage parasite; read-out: IC50 against blood stage T.b. rhodesiense; cited from earlier work.
In data set [2] the test system is bloodstream-form T. b. brucei TbAK RNAi cells. Description: Drug sensitivity test (Alamar blue) on TbAK RNAi knock-down mutant. Type of data set: cell-based. As to conditions: Trypanosoma brucei. How it is done: The construction of the T. b. brucei adenosine kinase gene knock-down mutant has been described recently. Expression of a stem-loop construct targeting TbAK was induced by addition of 10 µg/ml tetracycline to the medium. Down-regulation of TbAK expression was verified by Northern blotting. Parasites were cultivated and drug sensitivity was tested using the Alamar blue test. IC50 values were calculated by nonlinear fitting to the sigmoidal dose-response curve using Origin® software. The assays were performed in triplicates for at least four times.
(In general: Resazurin is reduced to fluorescent resorufin, in cell work by metabolically active cells.)

Data set [3] concerns the target T1, adenosine kinase of T. b. rhodesiense (TbrAK) (Trypanosoma brucei rhodesiense, UniProt Q584S0).
T1 sequence (Q584S0 1-345): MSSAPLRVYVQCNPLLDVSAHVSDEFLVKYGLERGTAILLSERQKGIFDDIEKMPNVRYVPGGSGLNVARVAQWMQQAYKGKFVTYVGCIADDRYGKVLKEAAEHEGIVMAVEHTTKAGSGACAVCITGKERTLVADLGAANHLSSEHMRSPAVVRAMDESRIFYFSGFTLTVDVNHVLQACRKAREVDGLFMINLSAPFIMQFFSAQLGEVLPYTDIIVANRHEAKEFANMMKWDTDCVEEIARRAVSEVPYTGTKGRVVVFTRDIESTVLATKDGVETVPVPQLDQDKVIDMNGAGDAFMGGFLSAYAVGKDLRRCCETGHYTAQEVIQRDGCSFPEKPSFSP
Description: HPLC activity assay for TbrAK. Type of data set: biochemical. How it is done: TbrAK catalyzes the ATP-dependent phosphorylation of the 5′-hydroxyl moiety of adenosine to form AMP and ADP. The activity assay was based on HPLC separation of substrate and products (adenosine, AMP, ADP, and ATP). The mobile phase consisted of 35 mM KH2PO4, 6 mM tetrabutylammonium hydrogensulfate, (pH 7.0, adjusted with KOH), 125 mM EDTA, and 1% (v/v) acetonitrile. The separation was performed isocratically at a flow-rate of 1.5 ml/min and monitored at 254 nm. The standard reaction in 75 µl total volume containing 0.5 mM ATP, 0.5 mM adenosine, 0.5 mM MgCl2, 1% DMSO in buffer E1 (20 mM Hepes, 150 mM NaCl, pH 7.0) was started with the addition of 2 µg TbrAK (final concentration 0.7 µM) and incubated at 37°C for 10 min while shaking vigorously (600 rpm). […] All reactions were stopped by adding 75 µl mobile phase. 50 µl of the sample volume were injected for analysis and the resulting ADP/ATP ratios were calculated and used as a measure of activity. For comparative reasons the activity recorded in absence of compound was set to 100%. The mean of three independent measurements are reported.

In data set [4] the target is T1, adenosine kinase of T. b. rhodesiense (TbrAK). Description: Thermal stability assay (CD spectroscopy) regarding TbrAK. Type of data set: binding. How it is done: Thermal unfolding of TbrGAPDH and TbrAK was studied by circular dichroism (CD) spectroscopy at 220 nm within the temperature range of 20–90°C using a heating rate of 40°C/h.
TbrAK in buffer E1 (20 mM Hepes, 150 mM NaCl, pH 7.0) was used at 0.5 mg/ml (final concentration 13 µM). All measurements were done in a 0.5 mm cell and contained 0.1 % DMSO and 2.5 mM EDTA to prevent enzyme activity. Thermal stability was analyzed in presence of 500 µM substrate to record the maximum stability limit, whereas compounds 1 to 5 were used at a concentration of 50 µM, being the highest concentration achievable for compound 2, to allow comparison of all compounds at the same concentration. For evaluation of the CD spectra, the buffer spectrum was subtracted from the protein CD spectrum. All thermal unfolding curves were fitted to a two-state model that had been published recently. The mean of three independent experiments are reported. […]

The target is the same in data set [5]. Description: Radiometric assay for kinetic study of TbrAK. The conditions noted are these: in presence of compound 1 (33.4 µM), 167 µM ATP.
Description: Kinetic constants for adenosine phosphorylation by TbrAK were obtained by monitoring the conversion of [2-^3H]adenosine to [2-^3H]AMP. Reactions were executed at 37°C in a final volume of 30 µl containing 20 mM Hepes (pH 7.0), 50 mM NaCl, 167 µM ATP, 167 µM MgCl2, 0.34% BSA, and 0.34% DMSO. […] The concentration of [2-^3H]adenosine (0.1–12 µM) was chosen in consideration of Michaelis–Menten conditions for initial velocity measurements. The reaction was started by the addition of 1 ng (0.88 nM) TbrAK. The reactions were incubated and 5 µl aliquots were spotted on 5 mm diameter DE81-cellulose disks placed in a 96-well plate to stop the reaction. The disks were washed 3 times with 250 µl 5 mM ammonium formate, once with H2O, transferred to scintillation vials, and then soaked with 2 ml of a displacement solution (100 mM HCl, 200 mM KCl) and gently shaken for 1 minute to elute the phosphorylated products [9]. After adding 10 ml scintillation liquid, the samples were counted in scintillation counter. Km and Vmax with respect to adenosine and Ki for adenosine substrate-inhibition in absence and presence of compound 1 were determined by non-linear fit of the data to the substrate-inhibition model described elsewhere [10].
Data set [6] has as its target T2, glycosomal T. b. rhodesiense glyceraldehyde-3-phosphate dehydrogenase (TbrGAPDH) (Trypanosoma brucei brucei, UniProt P22512).
T2 construct: made in house; host or cells: E. coli BL21(DE3), pET28a
The experiment in a line: Thermal stability assay (CD spectroscopy) regarding TbrGAPDH. Type of data set: binding. The conditions noted are these: compound at 50 µM. As to the method:
Thermal unfolding of TbrGAPDH and TbrAK was studied by circular dichroism (CD) spectroscopy at 220 nm within the temperature range of 20–90°C using a heating rate of 40°C/h. […]
All measurements were done in a 0.5 mm cell and contained 0.1 %
DMSO and 2.5 mM EDTA to prevent enzyme activity. Thermal stability was analyzed in presence of 500 µM substrate to record the maximum stability limit, whereas compounds 1 to 5 were used at a concentration of 50 µM, being the highest concentration achievable for compound 2, to allow comparison of all compounds at the same concentration. For evaluation of the CD spectra, the buffer spectrum was subtracted from the protein CD spectrum. All thermal unfolding curves were fitted to a two-state model that had been published recently. The mean of three independent experiments are reported. […]

Here are results for one compound from article PMC2724708, “Adenosine Kinase of T. b. rhodesiense Identified as the Putative Target of 4-[5-(4-phenoxyphenyl)-2H-pyrazol-3-yl]morpholine Using Chemical Proteomics” (PLoS Neglected Tropical Diseases, 2009).

Read-outs that look alike come from different tables or passages of the source.

For orientation: IC50 means the concentration that gives 50% inhibition. The EC50 is the concentration at which the effect is half-maximal. As a reminder, the ΔTm is the change in melting temperature against a reference sample. Broadly, the Vmax is the rate approached at saturating substrate. In general, kcat refers to the maximal rate divided by the concentration of active sites.

T2 sequence (P22512 whole entry): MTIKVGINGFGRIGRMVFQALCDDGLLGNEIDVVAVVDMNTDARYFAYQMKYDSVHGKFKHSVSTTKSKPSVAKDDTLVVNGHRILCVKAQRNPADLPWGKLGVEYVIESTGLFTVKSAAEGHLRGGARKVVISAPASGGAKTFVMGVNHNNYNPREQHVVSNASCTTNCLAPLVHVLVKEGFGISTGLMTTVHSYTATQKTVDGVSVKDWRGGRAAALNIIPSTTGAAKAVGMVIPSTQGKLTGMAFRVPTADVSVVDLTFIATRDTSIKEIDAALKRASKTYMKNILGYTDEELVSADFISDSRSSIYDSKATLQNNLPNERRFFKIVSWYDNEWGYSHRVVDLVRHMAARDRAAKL

In the case of `c1ccc(Oc2ccc(-c3cc(N4CCOCC4)[nH]n3)cc2)cc1` [compound 1, 4-[5-(4-phenoxyphenyl)-2H-pyrazol-3-yl]morpholine], in data set [1], the “cytotoxicity / general toxicity” value is “low cytotoxicity”. The half-maximal inhibitory concentration (IC50) in the data set with T. b. rhodesiense is 1000 nM. In data set [2] (read-out: IC50 on TbAK RNAi cells, induced), the IC50 was 271 ± 25 nM. The concentration for half-maximal inhibition (IC50) in data set [2] (read-out: IC50 on TbAK RNAi cells, non-induced) worked out at 131 ± 43 nM. The activity at 50 µM in data set [3] (50 µM compound, 0.7 µM TbrAK, 10 min, 37°C, ADP/ATP ratio, read-out: TbrAK activity in presence of compound (% of activity without compound)) was found to be 245 ± 3%. Further, the EC50 in data set [3] (0.5 mM ATP, 0.5 mM adenosine, 0.7 µM TbrAK, read-out: EC50 of TbrAK activation (HPLC assay)) came to 38900 ± 900 nM. Moreover, the fold induction at 50 µM in data set [3] (10 min, pH 7, 50 µM compound, read-out: fold increase of TbrAK activity) was determined as 2.5. For the same compound, the “concentration dependence of the activation effect” value in data set [3] (range 1–750 µM, up to solubility limit) is “concentration dependent”. For the same compound, the “Tm of TbrAK” value in data set [4] (compound at 50 µM, 13 µM TbrAK) was found to be 47.9±0.1 °C. In data set [4] (read-out: ΔTm of TbrAK), the ΔTm at 50 µM amounted to 4.8 °C. In data set [5], the “Ki adenosine (substrate-inhibition)” value came to 78400 ± 2200 nM, the Vmax was found to be 14.20 ± 0.14 nM/min and the kcat is 0.27 ± 0.01 s⁻¹. Moreover, the “Tm of TbrGAPDH” value in data set [6] is 46.8 ± 0.1 °C.
